Reference: US10322111B2, “Chemokine receptor binding heterocyclic compounds with enhanced efficacy” (Genzyme Corporation, priority 2001, dated 2019)
Like-named read-outs stand apart in the source and are kept apart here.

System: CFU-GM, BFU-E and CFU-GEMM progenitor cells
Conditions: 80 μg/kg s.c.

c1cc(CN2CCCNCCNCCCNCC2)ccc1CN1CCCNCCNCCCNCC1 [AMD3100, 1,1′-[1,4-phenylene-bis(methylene)]-bis-1,4,8,11-tetraazacyclotetradecane]
Cycling Status of Progenitors, BFU-E (P1, T = 1 h after injection): 0%
Cycling Status of Progenitors, CFU-GEMM (P1, T = 1 h after injection): 0%
Cycling Status of Progenitors, CFU-GM (P1, T = 1 h after injection): 1%
Cycling Status of Progenitors, CFU-GM, AGAR Culture (P1, T = 1 h after injection): 0%
Cycling Status of Progenitors, BFU-E (P1, T = 3 h after injection): 13%
Cycling Status of Progenitors, CFU-GEMM (P1, T = 3 h after injection): 7%
Cycling Status of Progenitors, CFU-GM (P1, T = 3 h after injection): 1%
Cycling Status of Progenitors, CFU-GM, AGAR Culture (P1, T = 3 h after injection): 0%
Cycling Status of Progenitors, BFU-E (P1, T = 6 h after injection): 0%
Cycling Status of Progenitors, CFU-GEMM (P1, T = 6 h after injection): 0%
Cycling Status of Progenitors, CFU-GM (P1, T = 6 h after injection): 0%
Cycling Status of Progenitors, CFU-GM, AGAR Culture (P1, T = 6 h after injection): 0%
Cycling Status of Progenitors, BFU-E (P1, T = 9 h after injection): 11%
Cycling Status of Progenitors, CFU-GEMM (P1, T = 9 h after injection): 0%
Cycling Status of Progenitors, CFU-GM (P1, T = 9 h after injection): 2%
Cycling Status of Progenitors, BFU-E (P1, T = 24 h after injection): 0%
Cycling Status of Progenitors, CFU-GEMM (P1, T = 24 h after injection): 0%
Cycling Status of Progenitors, CFU-GM (P1, T = 24 h after injection): 0%
Cycling Status of Progenitors, BFU-E (P2, T = 1 h after injection): 3%
Cycling Status of Progenitors, CFU-GEMM (P2, T = 1 h after injection): 6%
Cycling Status of Progenitors, CFU-GM (P2, T = 1 h after injection): 0%
Cycling Status of Progenitors, CFU-GM, AGAR Culture (P2, T = 1 h after injection): 0%
Cycling Status of Progenitors, BFU-E (P2, T = 3 h after injection): 0%
Cycling Status of Progenitors, CFU-GEMM (P2, T = 3 h after injection): 0%
Cycling Status of Progenitors, CFU-GM (P2, T = 3 h after injection): 2%
Cycling Status of Progenitors, CFU-GM, AGAR Culture (P2, T = 3 h after injection): 1%
Cycling Status of Progenitors, BFU-E (P2, T = 6 h after injection): 0%
Cycling Status of Progenitors, CFU-GEMM (P2, T = 6 h after injection): 0%
Cycling Status of Progenitors, CFU-GM (P2, T = 6 h after injection): 0%
Cycling Status of Progenitors, CFU-GM, AGAR Culture (P2, T = 6 h after injection): 3%
Cycling Status of Progenitors, BFU-E (P2, T = 9 h after injection): 0%
Cycling Status of Progenitors, CFU-GEMM (P2, T = 9 h after injection): 4%
Cycling Status of Progenitors, CFU-GM (P2, T = 9 h after injection): 0%
Cycling Status of Progenitors, CFU-GM, AGAR Culture (P2, T = 9 h after injection): 0%
Cycling Status of Progenitors, BFU-E (P2, T = 24 h after injection): 2%
Cycling Status of Progenitors, CFU-GEMM (P2, T = 24 h after injection): 0%
Cycling Status of Progenitors, CFU-GM (P2, T = 24 h after injection): 3%
Cycling Status of Progenitors, CFU-GM, AGAR Culture (P2, T = 24 h after injection): 0%
Cycling Status of Progenitors, BFU-E (P3, T = 1 h after injection): 0%
Cycling Status of Progenitors, CFU-GEMM (P3, T = 1 h after injection): 0%
Cycling Status of Progenitors, CFU-GM (P3, T = 1 h after injection): 0%
Cycling Status of Progenitors, CFU-GM, AGAR Culture (P3, T = 1 h after injection): 0%
Cycling Status of Progenitors, BFU-E (P3, T = 3 h after injection): 0%
Cycling Status of Progenitors, CFU-GEMM (P3, T = 3 h after injection): 0%
Cycling Status of Progenitors, CFU-GM (P3, T = 3 h after injection): 1%
Cycling Status of Progenitors, CFU-GM, AGAR Culture (P3, T = 3 h after injection): 0%
Cycling Status of Progenitors, BFU-E (P3, T = 6 h after injection): 0%
Cycling Status of Progenitors, CFU-GEMM (P3, T = 6 h after injection): 0%
Cycling Status of Progenitors, CFU-GM (P3, T = 6 h after injection): 0%
Cycling Status of Progenitors, CFU-GM, AGAR Culture (P3, T = 6 h after injection): 3%
Cycling Status of Progenitors, BFU-E (P3, T = 9 h after injection): 0%
Cycling Status of Progenitors, CFU-GEMM (P3, T = 9 h after injection): 0%
Cycling Status of Progenitors, CFU-GM (P3, T = 9 h after injection): 0%
Cycling Status of Progenitors, CFU-GM, AGAR Culture (P3, T = 9 h after injection): 0%
Cycling Status of Progenitors, BFU-E (P3, T = 24 h after injection): 0%
Cycling Status of Progenitors, CFU-GEMM (P3, T = 24 h after injection): 0%
Cycling Status of Progenitors, CFU-GM (P3, T = 24 h after injection): 0%
Cycling Status of Progenitors, CFU-GM, AGAR Culture (P3, T = 24 h after injection): 0%
Cycling Status of Progenitors, BFU-E (P4, T = 1 h after injection): 0%
Cycling Status of Progenitors, CFU-GEMM (P4, T = 1 h after injection): 0%
Cycling Status of Progenitors, CFU-GM (P4, T = 1 h after injection): 0%
Cycling Status of Progenitors, CFU-GM, AGAR Culture (P4, T = 1 h after injection): 0%
Cycling Status of Progenitors, BFU-E (P4, T = 3 h after injection): 9%
Cycling Status of Progenitors, CFU-GEMM (P4, T = 3 h after injection): 0%
Cycling Status of Progenitors, CFU-GM (P4, T = 3 h after injection): 5%
Cycling Status of Progenitors, CFU-GM, AGAR Culture (P4, T = 3 h after injection): 0%
Cycling Status of Progenitors, BFU-E (P4, T = 6 h after injection): 0%
Cycling Status of Progenitors, CFU-GEMM (P4, T = 6 h after injection): 8%
Cycling Status of Progenitors, CFU-GM (P4, T = 6 h after injection): 0%
Cycling Status of Progenitors, CFU-GM, AGAR Culture (P4, T = 6 h after injection): 0%
Cycling Status of Progenitors, BFU-E (P4, T = 9 h after injection): 0%
Cycling Status of Progenitors, CFU-GEMM (P4, T = 9 h after injection): 0%
Cycling Status of Progenitors, CFU-GM (P4, T = 9 h after injection): 0%
Cycling Status of Progenitors, CFU-GM, AGAR Culture (P4, T = 9 h after injection): 0%
Cycling Status of Progenitors, BFU-E (P4, T = 24 h after injection): 3%
Cycling Status of Progenitors, CFU-GEMM (P4, T = 24 h after injection): 0%
Cycling Status of Progenitors, CFU-GM (P4, T = 24 h after injection): 5%
Cycling Status of Progenitors, CFU-GM, AGAR Culture (P4, T = 24 h after injection): 0%
Cycling Status of Progenitors, BFU-E (P5, T = 1 h after injection): 0%
